Assay results: patent US9493466B2, “Treatment of cancer with TOR kinase inhibitors” (Signal Pharmaceuticals, LLC, priority 2011, dated 2016)
pIC50: −log10 of the molar value. Where two headings read alike, the source gives them in different places.

Assays:
[1] = system: CAG; test: Cell proliferation and viability assay for MM lines; format: cell-based; details: 5 days, 7AAD FACS
Method: (§1) Cell Proliferation and Viability Assay for MM Lines. Prior to use, cells were washed and maintained in medium for 5 days. Cells were seeded out at a density of 0.3×10^6 cells/mL in a 12-well plate and treated with Compound 1 or Compound 2 for 5 days. 7AAD detection fluorescence-activated cell sorting (FACS) flow cytometry was used in the analysis.

[2] = system: DF15; test: as above; format: cell-based; details: DF15, 5 days, 7AAD FACS
Method: as §1

[3] = system: H929; test: as above; format: cell-based; details: H929, 5 days, 7AAD FACS
Method: as §1

[4] = system: KMS34; test: as above; format: cell-based; details: KMS34, 5 days, 7AAD FACS
Method: as §1

[5] = system: LP-1; test: as above; format: cell-based; details: LP-1, 5 days, 7AAD FACS
Method: as §1

[6] = system: MM1.S; test: as above; format: cell-based; details: 5 days, 7AAD FACS
Method: as §1

[7] = system: OPM2; test: as above; format: cell-based; details: OPM2, 5 days, 7AAD FACS
Method: as §1

[8] = system: RPMI; test: as above; format: cell-based; details: 5 days, 7AAD FACS
Method: as §1

[9] = system: U266; test: as above; format: cell-based; details: U266, 5 days, 7AAD FACS
Method: as §1

[10] = system: NHL cell lines; test: Apoptosis assay for NHL lines (panel statement); format: cell-based; details: multiple NHL cell lines in vitro; FIG. 2
Method: Apoptosis Assay for NHL Lines. Prior to testing, cells were grown and expanded in culture flasks to provide sufficient amounts of starting material. Cells were then diluted to their desired densities and added directly to compound-spotted 384-well plates. Cells were allowed to grow for 24 hours in 5% CO2 at 37° C. The apoptotic response was assessed by quantifying the activities of caspase 3 and caspase 7 (Caspase 3/7-Glo) in treated cells and control cells at the 24-hour time point. All data was normalized and represented as a value relative to the DMSO-treated cells. Results were then expressed as CalX, which is the minimum compound concentration required to double the levels of caspase 3/7 relative to those of the DMSO-treated cells during their treatment period.

[11] = system: U87MG-Luc cells; test: U87MG intracranial glioblastoma model; format: in vivo, Nude mice; details: up to 6 weeks
Method: U87MG Intracranial Glioblastoma Model (Compound 1). An intracranial glioblastoma study was conducted with U87MG cells transfected with luciferase (U87-MG-Luc). Nude mice were inoculated intracranially with U87MG-Luc cells into the brain. Following inoculation of animals, the tumors were allowed to grow for 7 days. On day 7 following tumor cell inoculation, the mice were imaged using Xenogen imaging system. The mice having tumors with an average flux ranging between 6.29×10^7 and 1.59×10^8 photons/sec were pooled together and randomized into various treatment groups. Compound 1 was formulated in 0.5% CMC and 0.25% Tween 80 in water (as a suspension). The animals were orally administered vehicle (CMC-Tween) or Compound 1 once daily (QD) for up to 6 weeks. Doses of Compound 1 ranged between 2.5 and 20 mg/kg. The positive control Temozolomide (10 mg/kg, QD) was administered via intra peritoneal (IP) route. Temozolomide was formulated in 5% N-methylpyrrolidone, 45% PEG400 and 50% saline. The animals were imaged for bioluminescence once a week using Xenogen imaging system and monitored for survival. Statistical analysis was performed using a log-rank test between Compound-treated and vehicle-treated control groups.
U87MG Intracranial Glioblastoma Model (Compound 2). […] The animals were imaged for bioluminescence once a week using Xenogen imaging system and monitored for survival. […]

[12] = 120 h, read-out: IC50, Proliferation
[13] = 120 h, read-out: IC50, Viability
[14] = Homo sapiens, 120 h, read-out: IC50, Viability

CO[C@H]1CC[C@H](N2C(=O)CNc3ncc(-c4ccc(C(C)(C)O)nc4)nc32)CC1 [Compound 1, 7-(6-(2-hydroxypropan-2-yl)pyridin-3-yl)-1-((1r,4r)-4-methoxycyclohexyl)-3,4-dihydropyrazino-[2,3-b]pyrazin-2(1H)-one]
pIC50 ([1]; read-out: IC50, Proliferation): 6.10 | pIC50 ([1]; read-out: IC50, Viability): 5.59 | pIC50 ([2]; read-out: IC50, Proliferation): 7.00 | pIC50 ([2]; read-out: IC50, Viability): 6.07 | pIC50 ([3]; read-out: IC50, Proliferation): 6.72 | pIC50 ([3]; read-out: IC50, Viability): 6.14 | pIC50 ([4]; read-out: IC50, Proliferation): 7.00 | pIC50 ([4]; read-out: IC50, Viability): 6.38 | pIC50 ([5]; read-out: IC50, Proliferation): 6.66 | pIC50 ([6]; read-out: IC50, Proliferation): 6.36 | pIC50 ([6]; read-out: IC50, Viability): 6.00 | pIC50 ([7]; read-out: IC50, Proliferation): 6.48 | pIC50 ([7]; read-out: IC50, Viability): 6.22 | pIC50 ([8]; read-out: IC50, Proliferation): 6.77 | pIC50 ([8]; read-out: IC50, Viability): 5.96 | pIC50 ([9]; read-out: IC50, Proliferation): 6.25 | apoptosis induction [10]: induce apoptosis | survival ([11]; 2.5 to 20 mg/kg QD oral, FIG. 14): significantly prolonged the life

CCN1C(=O)CNc2ncc(-c3ccc(-c4nc[nH]n4)nc3C)nc21 [Compound 2, 1-ethyl-7-(2-methyl-6-(1H-1,2,4-triazol-3-yl)pyridin-3-yl)-3,4-dihydropyrazino[2,3-b]pyrazin-2(1H)-one]
pIC50 [1, 12]: 6.39 | pIC50 [1, 13]: 5.82 | pIC50 [2, 12]: 7.30 | pIC50 [2, 13]: 6.24 | pIC50 ([3]; Homo sapiens, NCI-H929, 120 h, read-out: IC50, Proliferation): 6.89 | pIC50 ([3]; Homo sapiens, NCI-H929, 120 h, read-out: IC50, Viability): 6.40 | pIC50 ([4]; KMS-34, 120 h, read-out: IC50, Proliferation): 7.15 | pIC50 ([4]; KMS-34, 120 h, read-out: IC50, Viability): 6.92 | pIC50 ([5]; Homo sapiens, 120 h, read-out: IC50, Proliferation): 6.80 | pIC50 [5, 14]: 6.08 | pIC50 [6, 14]: 6.07 | pIC50 ([7]; Homo sapiens, OPM-2, 120 h, read-out: IC50, Proliferation): 6.43 | pIC50 ([7]; Homo sapiens, OPM-2, 120 h, read-out: IC50, Viability): 6.29 | pIC50 [8, 12]: 6.82 | pIC50 [8, 13]: 6.35 | pIC50 ([9]; Homo sapiens, U-266, 120 h, read-out: IC50, Proliferation): 6.49 | pIC50 ([9]; Homo sapiens, U-266, 120 h, read-out: IC50, Viability): 5.37 | apoptosis induction [10]: induce apoptosis | survival ([11]; 0.5 to 5 mg/kg QD oral, FIG. 16): significantly prolonged the life
